The values below come from US9387219B2, “Edible composition” (Conopco, Inc., priority 2011, dated 2016).

The target of assay [1] is T1, GLUT2 (Homo sapiens, UniProt P11168).
T1 construct: endogenous in cells; host or cells: differentiated Caco-2 cell monolayers (ATCC)
T1 sequence (P11168 1-524): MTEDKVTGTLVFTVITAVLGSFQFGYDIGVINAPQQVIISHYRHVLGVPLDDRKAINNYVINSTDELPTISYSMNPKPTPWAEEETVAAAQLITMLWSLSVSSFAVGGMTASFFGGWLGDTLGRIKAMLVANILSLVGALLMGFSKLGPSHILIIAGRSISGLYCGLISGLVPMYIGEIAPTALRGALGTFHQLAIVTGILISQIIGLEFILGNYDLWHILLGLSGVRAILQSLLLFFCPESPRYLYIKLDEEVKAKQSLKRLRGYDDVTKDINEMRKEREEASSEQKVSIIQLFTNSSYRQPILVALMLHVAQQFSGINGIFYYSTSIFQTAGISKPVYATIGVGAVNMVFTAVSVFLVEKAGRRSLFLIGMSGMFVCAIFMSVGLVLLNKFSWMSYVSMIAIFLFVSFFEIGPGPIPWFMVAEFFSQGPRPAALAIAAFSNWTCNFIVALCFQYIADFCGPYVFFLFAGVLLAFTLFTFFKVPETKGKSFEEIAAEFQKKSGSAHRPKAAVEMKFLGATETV
The experiment in a line: Glucose transport inhibitor cell screening assay, 25 mM D-glucose for 30 minutes (GLUT2 inhibition). Type of assay: cell-based. The following applies: differentiated Caco-2 monolayer, 30 minutes, active at 150 uM. The method, then:
(§1) Human epithelial colorectal adenocarcinoma (Caco-2) cells were obtained from the American Type Culture Collection (ATCC) and cultured in Growth Medium consisting of Dulbecco's modified Eagle's medium (containing Glutamax-1, 4.5 g/L D-glucose and 25 mM 4-(2-hydroxyethyl)-1-piperazine ethanesulphonic acid (Hepes) (Invitrogen)), 10% foetal bovine serum (Sigma), 1% non-essential amino acids (Invitrogen) and 1 mM sodium pyruvate (Sigma)). The cells were routinely passaged at approximately 80% confluence using TrypLE™ Express Stable Trypsin-Like Enzyme (Invitrogen) to detach the cells, and seeded at approximately 114 cells per mm^2 in fresh tissue culture flasks. Only cells between the passage numbers 45 and 49 were used for experiments.
(§2) Corning® HTS Transwell® 96 well permeable insert supports (Sigma) were collagen coated with 40 μl of 50 μg/ml rat tail collagen type I (BD Biosciences) in 0.02 M acetic acid for one hour at room temperature under sterile conditions. The inserts were washed twice in phosphate buffered saline (PBS (Invitrogen)) and the Caco-2 cells seeded into the inserts at 9.6×10^5 cell/ml (75 μl per insert) in Growth Medium and 30 ml of Growth Medium added to the feeder plate below. The cells were left to attach to the collagen matrix and form monolayers over 48 hours at 37° C., 5% CO2. Both inserts and feeder plate were washed in PBS and the cells incubated with BD Entero-STIM™ Enterocyte Differentiation Medium containing MITO+™ Serum Extender solution (both BD Biosciences), 75 μl per insert and 30 ml in the feeder plate, for a further 48 hours at 37° C., 5% CO2.
(§3) Differentiated cell monolayers were washed gently in Dulbecco's Phosphate Buffered Saline containing CaCl2 and MgCl2 (PBS(+) (Invitrogen)) and the inserts transferred to a new Corning® HTS Transwell®-96 well receiver plate (Sigma). The cells were incubated with fresh PBS(+) (75 μl per insert and 225 μl per well) for 60 minutes at 37° C., 5% CO2. The PBS(+) was gently aspirated and replaced with 75 μl per insert of either 5 mM D-glucose (Sigma)±test active or 25 mM D-glucose±test active in triplicate and 225 μl per well of PBS(+) quickly added to each well. The 5 mM glucose wells and the 25 mM glucose wells were incubated at 37° C., 5% CO2 for 15 minutes and 30 minutes, respectively. Details of all the actives tested are found in table 1. The cell inserts were transferred to a new receiver plate, the supernatant gently aspirated from the cells and replaced with 100 μl of 100 μM of Lucifer Yellow (Sigma) solution to confirm the integrity of the monolayers. 225 μl of PBS(+) was added to each well and incubated at 37° C., 5% CO2 for 1 hour. The cell inserts were then discarded and the permeability of the membranes to Lucifer Yellow checked by measuring the fluorescence of the samples at 485 nm (excitation) and 530 nm (emission) on a Spectramax Gemini EM fluorescence microplate reader.
(§4) The amount of glucose transported across the cell monolayers was measured using a glucose assay based on Invitrogen's Amplex Red Glucose/Glucose oxidase Assay Kit. Briefly, 50 μl of each test sample was transferred to a black sided/clear bottom 96-well plate (Greiner Bio-One) to which 100 μl of reaction buffer (0.5 μl 10 mM Ampliflu Red, 1 μl 10 U/ml Horse Radish peroxidase, 1 μl 100 U/ml glucose oxidase and 97.5 μl PBS (all Sigma)) was added. After 10 minutes incubation at room temperature, the fluorescence of the samples were measured at 530 nm (excitation) and 590 nm (emission) on a Spectramax Gemini EM fluorescence microplate reader and the glucose concentration extrapolated from a standard curve.
(§5) At higher D-glucose concentrations, the SGLT1 transporter becomes saturated and consequently the majority of glucose transport across the monolayer is driven by the low affinity, high capacity GLUT2 transporter that is targeted to the apical membrane only following an initial SGLT1-dependent transport of glucose.

Assay [2] addresses T2, SGLT1 (Homo sapiens, UniProt P13866).
T2 construct: endogenous in cells; host or cells: differentiated Caco-2 cell monolayers (ATCC)
T2 sequence (P13866 1-664): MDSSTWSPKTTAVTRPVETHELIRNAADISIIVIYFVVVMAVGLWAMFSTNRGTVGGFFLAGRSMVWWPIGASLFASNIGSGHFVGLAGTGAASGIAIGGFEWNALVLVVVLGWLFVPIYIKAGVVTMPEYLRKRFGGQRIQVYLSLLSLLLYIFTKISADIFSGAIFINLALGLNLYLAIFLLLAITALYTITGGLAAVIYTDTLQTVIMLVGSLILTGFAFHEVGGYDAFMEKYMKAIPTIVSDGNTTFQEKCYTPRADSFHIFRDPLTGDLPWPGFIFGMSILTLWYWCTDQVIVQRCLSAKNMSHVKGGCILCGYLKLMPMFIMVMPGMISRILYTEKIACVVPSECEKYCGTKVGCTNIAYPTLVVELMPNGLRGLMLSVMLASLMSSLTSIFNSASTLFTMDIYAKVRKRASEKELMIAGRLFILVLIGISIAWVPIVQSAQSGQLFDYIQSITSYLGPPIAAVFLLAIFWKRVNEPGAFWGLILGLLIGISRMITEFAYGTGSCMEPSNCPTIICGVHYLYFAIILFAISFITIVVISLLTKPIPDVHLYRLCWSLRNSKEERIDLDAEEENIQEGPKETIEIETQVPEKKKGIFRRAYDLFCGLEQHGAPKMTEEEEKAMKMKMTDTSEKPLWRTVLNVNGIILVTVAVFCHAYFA
The experiment in a line: Glucose transport inhibitor cell screening assay, 5 mM D-glucose for 15 minutes (SGLT1 inhibition). Type of assay: cell-based. The following applies: for Class (assigned class of transporter inhibited): assigned from % inhibition at 5 mM and 25 mM D-glucose in Caco-2 cells; for SGLT1 inhibitory activity (in words): Caco-2 cell model. The method, then:
as §1, §2, §3, §4, §5
(Passage across Caco-2 layers is used to estimate intestinal permeability.)

Setting [3] is: differentiated Caco-2 monolayer, 5 mM D-glucose, 15 minutes, active at 300 uM.

Regarding `O=c1cc(-c2ccc(O)cc2)oc2cc(OC3O[C@H](CO)[C@@H](O)[C@H](O)[C@H]3O)cc(O)c12` (stereo partly drawn) [Apigenin-7-glucoside], the “% Glucose Transport inhibition 25 mM” value in assay [1] was found to be 12.81%.
Molecule `O=c1cc(-c2ccc(O)cc2)oc2cc(O)cc(O)c12` [Apigenin] yielded an inhibition at 150 µM in assay [1] of 49.3%. For the same molecule, the “Class (assigned class of transporter inhibited)” value in assay [2] is “GLUT2 (GLUT2 inhibitors having ≧20% inhibition at both 5 mM and 25 mM D-glucose levels)”. The same molecule showed an inhibition at 300 µM in assay [2] (setting [3]) of 56.8%.
As for `OC[C@H]1O[C@@H](Oc2cc3c(O)cc(O)cc3[o+]c2-c2ccc(O)c(O)c2)[C@H](O)[C@@H](O)[C@@H]1O` [Cyanidin-3-glucoside], in assay [2] (5 mM D-glucose), the “SGLT1 inhibitory activity (in words)” value is “inhibition of SGLT1”. The “Class (assigned class of transporter inhibited)” value in assay [2] is on record as “SGLT1”.
For `C[C@@H]1O[C@@H](OC[C@H]2O[C@@H](Oc3cc4c(O)cc(O)cc4[o+]c3-c3ccc(O)c(O)c3)[C@H](O)[C@@H](O)[C@@H]2O)[C@H](O)[C@H](O)[C@H]1O` [Cyanidin-3-rutinoside], in that order: “absence of SGLT1 inhibitory activity” and “None”.
The molecule `Oc1cc(O)c2cc(O)c(-c3ccc(O)c(O)c3)[o+]c2c1` [Cyanidin] came in with an inhibition at 150 µM in assay [1] of 3.21%. In assay [2] (setting [3]), this molecule had an inhibition at 300 µM of 7.93%.
For the molecule `O=c1c(-c2ccc(O)cc2)coc2c([C@@H]3O[C@H](CO)[C@@H](O)[C@H](O)[C@H]3O)c(O)ccc12` [Daidze in-8-C-glucoside], the “SGLT1 inhibitory activity (in words)” value in assay [2] (5 mM D-glucose) is “inhibition of SGLT1”. The “Class (assigned class of transporter inhibited)” value in assay [2] was “SGLT1”.
Regarding `O=c1c(-c2ccc(O)cc2)coc2cc(O[C@@H]3O[C@H](CO)[C@@H](O)[C@H](O)[C@H]3O)ccc12` [Daidzein-7-glucoside], the “% Glucose Transport inhibition 25 mM” value in assay [1] is listed as 7.23%. Further, the “SGLT1 inhibitory activity (in words)” value in assay [2] (5 mM D-glucose) was “inhibition of SGLT1”. Besides, in assay [2], the “Class (assigned class of transporter inhibited)” value is listed as “SGLT1”. In addition, the “% Glucose Transport inhibition 5 mM” value in assay [2] (setting [3]) was determined as 35.03%.
Take `OC[C@H]1O[C@@H](Oc2cc3c(O)cc(O)cc3[o+]c2-c2cc(O)c(O)c(O)c2)[C@H](O)[C@@H](O)[C@@H]1O` [Delphinidin-3-glucoside]: the “SGLT1 inhibitory activity (in words)” value in assay [2] (5 mM D-glucose) is given as “inhibition of SGLT1”. Besides, in assay [2], the “Class (assigned class of transporter inhibited)” value was “SGLT1”.
For `Oc1cc(O)c2cc(O)c(-c3cc(O)c(O)c(O)c3)[o+]c2c1` [Delphinindin], the “% Glucose Transport inhibition 25 mM” value in assay [1] was 15.86%.
`O=C1C[C@@H](c2ccc(O)c(O)c2)Oc2cc(O[C@@H]3O[C@H](CO)[C@@H](O)[C@H](O)[C@H]3O)cc(O)c21` [Eriodictiol-7-O-glucoside]: in assay [1], the “% Glucose Transport inhibition 25 mM” value is 4.98%. Also, in assay [2] (5 mM D-glucose), the “SGLT1 inhibitory activity (in words)” value is “inhibition of SGLT1”. Moreover, in assay [2], the “Class (assigned class of transporter inhibited)” value is “SGLT1”.
On to `O=c1c(-c2ccc(O)cc2)coc2cc(O)cc(O)c12` [Genistein], for which the inhibition at 150 µM in assay [1] was 57.7%. In assay [2], the “Class (assigned class of transporter inhibited)” value was “GLUT2 (GLUT2 inhibitors having ≧20% inhibition at both 5 mM and 25 mM D-glucose levels)”. For the same molecule, the inhibition at 300 µM in assay [2] (setting [3]) turned out to be 56.5%.
Take `COc1ccc([C@@H]2CC(=O)c3c(O)cc(O)cc3O2)cc1O` [Hesperetin]: in assay [1], testing at 150 µM gave an inhibition of 74.4%. For the same molecule, in assay [2], the “Class (assigned class of transporter inhibited)” value is “GLUT2 (GLUT2 inhibitors having ≧20% inhibition at both 5 mM and 25 mM D-glucose levels)”. The molecule also came in with an inhibition at 300 µM in assay [2] (setting [3]) of 72.3%.
Turning to `O=c1c(O)c(-c2ccc(O)cc2)oc2cc(O)cc(O)c12` [Kaempferol], at 150 µM the inhibition in assay [1] was 32.4%. In assay [2], the “Class (assigned class of transporter inhibited)” value is “GLUT2 (GLUT2 inhibitors having ≧20% inhibition at both 5 mM and 25 mM D-glucose levels)”. The same molecule yielded an inhibition at 300 µM in assay [2] (setting [3]) of 26%.
In assay [1], `O=c1cc(-c2ccc(O)c(O)c2)oc2cc(O)cc(O)c12` [Luteolin] displayed an inhibition at 150 µM of 63.2%. Also, in assay [2], the “Class (assigned class of transporter inhibited)” value is “GLUT2 (GLUT2 inhibitors having ≧20% inhibition at both 5 mM and 25 mM D-glucose levels)”. The inhibition at 300 µM in assay [2] (setting [3]) is 77.4%.
With `COc1cc(-c2[o+]c3cc(O)cc(O)c3cc2O[C@@H]2O[C@H](CO)[C@H](O)[C@H](O)[C@H]2O)cc(OC)c1O` [Malvidin 3-O-Galactoside], the “% Glucose Transport inhibition 25 mM” value in assay [1] is listed as 10.41%. Further, the “SGLT1 inhibitory activity (in words)” value in assay [2] (5 mM D-glucose) was “absence of SGLT1 inhibitory activity”. In addition, in assay [2], the “Class (assigned class of transporter inhibited)” value was “None”.
For `COc1cc(-c2[o+]c3cc(O)cc(O)c3cc2O[C@@H]2O[C@H](CO)[C@@H](O)[C@H](O)[C@H]2O)cc(OC)c1O` [Malvidin-3-O-glucoside], in that order: 10.91%, “inhibition of SGLT1” and “SGLT1”.
As to `Oc1ccc(-c2[o+]c3cc(O)cc(O)c3cc2O)cc1` [Pelargonidin], testing at 300 µM in assay [2] (setting [3]) gave an inhibition of 4.07%.
`O=C(CCc1ccc(O)cc1)c1c(O)cc(O)cc1O` [Phloretin, reference compound]: testing at 150 µM in assay [1] gave an inhibition of 76.1%.
For the molecule `O=c1c(O[C@@H]2O[C@H](CO)[C@@H](O)[C@H](O)[C@H]2O)c(-c2ccc(O[C@@H]3O[C@H](CO)[C@@H](O)[C@H](O)[C@H]3O)c(O)c2)oc2cc(O)cc(O)c12` [Quercetin-3,4′-diglucoside], the “SGLT1 inhibitory activity (in words)” value in assay [2] (5 mM D-glucose) is reported as “destroys this inhibitory action”. In addition, the “Class (assigned class of transporter inhibited)” value in assay [2] was “None”.
On to `OC[C@H]1O[C@@H](Oc2ccc(O)cc2)[C@H](O)[C@@H](O)[C@@H]1O` [arbutin], for which the “SGLT1 inhibitory activity (in words)” value in assay [2] (5 mM D-glucose) is reported as “lack of SGLT1 inhibitory activity”.

Usually inhibition stands for the share of the control response that was lost under treatment.
